This is an account of results in US9463192B2, “Trk-inhibiting compound” (ONO PHARMACEUTICAL CO., LTD., priority 2013, dated 2016).

The test system of assay [1] is NGF-induced vascular hyper permeability. Briefly: Inhibition of rat NGF-induced vascular hyper permeability. It is filed as in vivo. The settings on record: po, 1 mg/kg orally, 14 h after administration, read-out: Inhibition rate of vascular hyper permeability (%) (time after administration (h)). How it is done: TrkA-inhibiting activity of the present compound was evaluted in vivo. The present compound dissolved in a medium was orally administered (adminstered volume: 5 mL/kg) to male CD(SD)IGS rats (7- to 9-week old, Charles River laboratories Japan, Inc.) shaved on the back. A medium was orally administered (adminstered volume: 5 mL/kg) to the control and normal groups. After 6, 12 or 14 hours of administration, 3 μg/mL of a NGF (Mouse 2.5s, Natural, Invitrogen) solution prepared in 0.1% BSA (Sigma-Aldrich)-containing saline was intracutaneously administered (dose; 50 μL/site) at 3 sites on the back of animals under halothane anesthesia. For the normal group, 0.1% BSA-containing saline was intracutaneously administered (dose; […]) at 3 sites on the back. Immediately after intracutaneous administration, 1% Evans Blue (Tokyo Chemical Industriy Co., Ltd.) was administered intravenously from tail (adminstered volume: 3 mL/kg). After 10 minutes of administration, the animals were sacrificed by bleeding due to incision of the abdominal aorta. The sites of intracutaneous administration on the back (3 sites) were excised and the skin samples were respectively transferred to the wells in a 48-well plate (Asahi Glass Co., Ltd.). Formamide (0.8 mL/well) was added to the plate and the plate was sealed and incubated overnight at 60° C. The formamide extraction solution (200 μL) was transferred to a 96-well plate and the absorbance (wavelength: 620 nm) of Evans Blue extracted in formamide was measured on an absorbance microplate reader (SpectraMAX 190, Molecular Devices Japan, K.K.). Standard samples of Evans Blue dissolved in formamide (0, 0.78, 1.56, 3.13, 6.25, 12.5, 25 and 50 µg/mL) were measured at the same time for the absorance (wavelength: 620 nm) to generate a calibration curve. Based on the calibration curve and the absorbances of samples, the concentrations of Evans Blue in the sample was calculated. The concentrations of Evans Blue for three skin samples collected from one aminal were averaged to obtain the vale for the animal. The rate of inhibition for rat NGF-induced vascular hyper permeability of the present compound was calculated according to the following Equation: Inhibition rate (%)={1−(AX−AN)/(AC−AN)}×100 [Eq. 3]
wherein AX: the concentration of Evans Blue of the test compound (an average value of 3 samples from one animal);
AN: the concentration of Evans Blue of the normal group (an average value of 3 samples from one animal);
AC: the concentration of Evans Blue of the control group (an average value of 3 samples from one animal).

The next assay has as its target human TrkA (Homo sapiens (Human), UniProt P04629). The assay is described as follows: Measurement of TrkA kinase-inhibiting activity using human TrkA-expressing cells. It is filed as cell-based. The settings on record: CHO-K1 cells expressing human TrkA and NFAT-bla; NGF 50 ng/ml; TR-FRET reporter. How it is done: TrkA kinase-inhibiting activity in cell systems was measured using CHO-K1 cells exressing human TrkA and NFAT-bla (CellSenser™ TrkA-NFAT-bla CHO-K1 cells, Invitrogen).
On the day before the assay, CellSenser™ TrkA-NFAT-bla CHO-K1 cells were suspended in an assay medium (Opti-MEM1 Reduced Serum Medium (Invitrogen) containing 0.5% dialysed fetal bovine serum (Invitrogen), 0.1 mM nonessential amino acids (Invitrogen), 1 mM sodium pyruvate (Invitrogen) and antibiotics (100 U/mL penicillin and 100 µg/mL streptomycin (Invitrogen))) and plated at a density of 2.4×10^4 cells/40 μL/well in a 96-well clear bottom plate (Corning, Catalogue No.: 3882). In some wells were added only the assay medium at 40 μL/well (Cell-free). On the day of the assay, 10 mM of the present compound (DMSO solution) was distributed in a 96-well plate (Costar, Catalogue No.: 3363) and serially diluted with DMSO with the geometrical ratio of 3. The serial dilutions were diluted with the assay medium to 100-fold to prepare a solution of the present compound with a 10-fold concentration (DMSO concentration: 1%). To the plate where cells were plated was added the present compound at 5 µL/well and the plate was incubated in a CO2 incubator with 5% CO2, 95% Air at 37° C. for 30 minutes. For a control and a blank, the assay medium containing 1% DMSO was added at 5 µL/well in place of the solution of the present compound. Subsequently the assay medium containing NGF (Mouse 2.5s, Natural, Invitrogen) was added to the plate at 5 µL/well (final concentration of NGF: 50 ng/ml) and the plate was incubated in a CO2 incubator with 5% CO2, 95% Air at 37° C. for 5 hours. For the blank group, the assay medium was added in place of NGF at 5 µL/well. A reporter assay detection reagent ([…]) was added to the plate which was then incubated in the dark at room temperature for 120 minutes. The reporter assay detection reagent was prepared from LiveBLAzer™-FRET B/G Loading Kit (Invitrogen). On the Analyst GT (Molecular Devices Japan, K.K.) the wells were irradiated with excitation light at 405 nm and the fluorescence intensities at 460 nm and 530 nm were measured. The time resolved fluorescence resonance energy transfer (TR-FRET) ratio of each well was calculated according to the following Equation 1: TR-FRET ratio=(A460x−A460F)/(A530x−A530F) [Eq. 1]
A460x: the fluorescence intensity at 460 nm of the present compound, control or blank;
A460F: the fluorescence intensity at 460 nm of the Cell-free;
A530x: the fluorescence intensity at 530 nm of the present compound, control or blank; and
A530x: the fluorescence intensity at 530 nm of the Cell-free.
The TR-FRET inhibition rate (%) of the present compound was calculated according to the following Equation 2: Inhibition rate (%)={1−(AX−AB)/(AC−AB)}×100 [Eq. 2]
wherein AX: the TR-FRET ratio when the present compound is added;
AB: the TR-FRET of the blank; and
AC: the TR-FRET of the control.
The IC50 value by the present compound was calculated from the inhibition curve based on the inhibition rate of the present compound at respective concentrations.
A general note: Time-resolved FRET reads energy transfer from a long-lived donor to a nearby acceptor.

human TrkA, sequence (P04629 33-796): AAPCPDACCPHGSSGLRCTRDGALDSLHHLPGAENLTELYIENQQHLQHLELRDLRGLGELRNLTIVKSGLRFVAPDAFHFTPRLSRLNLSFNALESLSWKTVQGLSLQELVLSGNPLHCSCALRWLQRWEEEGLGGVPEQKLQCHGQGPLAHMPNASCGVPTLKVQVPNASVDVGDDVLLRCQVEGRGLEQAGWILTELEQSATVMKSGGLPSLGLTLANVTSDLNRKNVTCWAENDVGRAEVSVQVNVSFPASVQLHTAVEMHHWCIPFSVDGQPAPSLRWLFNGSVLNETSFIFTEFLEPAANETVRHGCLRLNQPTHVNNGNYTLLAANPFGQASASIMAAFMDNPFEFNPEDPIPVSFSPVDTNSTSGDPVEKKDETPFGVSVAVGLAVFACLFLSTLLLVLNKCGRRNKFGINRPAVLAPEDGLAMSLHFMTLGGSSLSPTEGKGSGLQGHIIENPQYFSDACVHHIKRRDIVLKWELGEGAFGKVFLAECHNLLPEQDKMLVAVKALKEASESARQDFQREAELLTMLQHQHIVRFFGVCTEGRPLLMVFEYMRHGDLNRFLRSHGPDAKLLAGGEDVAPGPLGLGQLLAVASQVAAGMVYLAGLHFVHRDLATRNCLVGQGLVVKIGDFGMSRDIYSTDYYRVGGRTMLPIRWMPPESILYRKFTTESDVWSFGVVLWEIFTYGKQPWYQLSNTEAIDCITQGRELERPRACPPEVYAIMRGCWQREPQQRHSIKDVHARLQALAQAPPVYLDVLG

As for `Nc1ncc(Cl)cc1-c1ccc(Oc2ncc(NC(=O)Nc3ccc(C(F)(F)F)cc3Cl)cn2)cc1` [Example 15-6, 1-(2-(4-(2-amino-5-chloropyridin-3-yl)phenoxy)pyrimidin-5-yl)-3-(2-chloro-4-(trifluoromethyl)phenyl)urea], in assay [1], the inhibition in vivo at 1 mg/kg is 95%. For the same molecule, it took 0.002 µM to reach half-maximal inhibition on human TrkA (IC50).

With `Nc1ncc(C(F)(F)F)cc1-c1ccc(Oc2ncc(NC(=O)Nc3cc(C(F)(F)F)ccc3-n3ccc(C(F)(F)F)n3)cn2)cc1` [Example 15-52, 1-(2-{4-[2-amino-5-(trifluoromethyl)-3-pyridinyl]phenoxy}-5-pyrimidinyl)-3-{5-(trifluoromethyl)-2-[3-(trifluoromethyl)-1H-pyrazol-1-yl]phenyl}urea], the inhibition in vivo at 1 mg/kg in assay [1] came out at 96%. For the same molecule, the IC50 against human TrkA worked out at 0.004 µM.

Consider `Nc1ncc(Cl)cc1-c1ccc(Oc2ncc(NC(=O)Nc3cc(C(F)(F)F)ccc3-c3ccccc3)cn2)cc1` [Example 15-55, 1-{2-[4-(2-amino-5-chloro-3-pyridinyl)phenoxy]-5-pyrimidinyl}-3-[4-(trifluoromethyl)-2-biphenylyl]urea], for which the inhibition in vivo at 1 mg/kg in assay [1] came to 94%. The molecule also gave an IC50 at human TrkA of 0.004 µM.

For the molecule `Nc1ncc(F)cc1-c1ccc(Oc2ncc(NC(=O)Nc3cc(C(F)(F)F)ccc3-c3ccccc3)cn2)cc1` [Example 15-58, 1-{2-[4-(2-amino-5-fluoro-3-pyridinyl)phenoxy]-5-pyrimidinyl}-3-[4-(trifluoromethyl)-2-biphenylyl]urea], in assay [1], the inhibition in vivo at 1 mg/kg came to 100%. The IC50 against human TrkA was found to be 0.002 µM.

For the molecule `Nc1ncc(Cl)cc1-c1ccc(Oc2ncc(NC(=O)Nc3cc(C(F)(F)F)ccc3-n3cc(Cl)cn3)cn2)cc1` [Example 15-63, 1-{2-[4-(2-amino-5-chloro-3-pyridinyl)phenoxy]-5-pyrimidinyl}-3-[2-(4-chloro-1H-pyrazol-1-yl)-5-(trifluoromethyl)phenyl]urea], in assay [1], the inhibition in vivo at 1 mg/kg was found to be 99%. Besides, the IC50 on human TrkA was 0.002 µM.

In the case of `Nc1ncc(Cl)cc1-c1ccc(Oc2ncc(NC(=O)Nc3cc(Cl)ccc3-n3ccc(C(F)(F)F)n3)cn2)cc1` [Example 15-71, 1-{2-[4-(2-amino-5-chloro-3-pyridinyl)phenoxy]-5-pyrimidinyl}-3-{5-chloro-2-[3-(trifluoromethyl)-1H-pyrazol-1-yl]phenyl}urea], the inhibition in vivo at 1 mg/kg in assay [1] is 100%. Moreover, the midpoint of inhibition against human TrkA, the IC50, lay at 0.002 µM.

For the molecule `Nc1ncc(Cl)cc1-c1ccc(Oc2ncc(NC(=O)Nc3ccc(C(F)(F)F)cc3C(F)(F)F)cn2)cc1` [Example 15-77, 1-{2-[4-(2-amino-5-chloro-3-pyridinyl)phenoxy]-5-pyrimidinyl}-3-[2,4-bis(trifluoromethyl)phenyl]urea], in assay [1], the inhibition in vivo at 1 mg/kg came to 100%. In addition, the IC50 against human TrkA stood at 0.002 µM.

Take `Nc1ncc(C(F)(F)F)cc1-c1ccc(Oc2ncc(NC(=O)Nc3cc(C(F)(F)F)ccc3-n3cc(Cl)cn3)cn2)cc1` [Example 15-87, 1-(2-{4-[2-amino-5-(trifluoromethyl)-3-pyridinyl]phenoxy}-5-pyrimidinyl)-3-[2-(4-chloro-1H-pyrazol-1-yl)-5-(trifluoromethyl)phenyl]urea]: the inhibition in vivo at 1 mg/kg in assay [1] is 86%. The IC50 against human TrkA is 0.001 µM.

For `CS(=O)(=O)c1ccc(C(F)(F)F)cc1NC(=O)Nc1cnc(Oc2ccc(-c3cc(F)cnc3N)cc2)nc1` [Example 15-96, 1-{2-[4-(2-amino-5-fluoro-3-pyridinyl)phenoxy]-5-pyrimidinyl}-3-[2-(methylsulfonyl)-5-(trifluoromethyl)phenyl]urea], in assay [1], the inhibition in vivo at 1 mg/kg was determined as 90%. In addition, the IC50 against human TrkA worked out at 0.0004 µM.

Turning to `CS(=O)(=O)c1ccc(C(F)(F)F)cc1NC(=O)Nc1cnc(Oc2ccc(-c3cc(C(F)(F)F)cnc3N)cc2)nc1` [Example 15-98, 1-(2-{4-[2-amino-5-(trifluoromethyl)-3-pyridinyl]phenoxy}-5-pyrimidinyl)-3-[2-(methylsulfonyl)-5-(trifluoromethyl)phenyl]urea], the inhibition in vivo at 1 mg/kg in assay [1] was 80%. On human TrkA, the IC50 was found to be 0.0008 µM.

For orientation: IC50 means the concentration that inhibits the measured activity by half. A higher IC50 goes with weaker potency in that assay.
